From patent US20070156342A1, “Pseudo-sequence method for comparing 7tm receptors with respect to the physico-chemical properties of their binding sites” (7TM PHARMA A/S, priority 2003, published 2007)

Molecular target: T1, GRP44 (CRTH2) (Homo sapiens, UniProt Q9Y5Y4)
T1 sequence (Q9Y5Y4 1-395): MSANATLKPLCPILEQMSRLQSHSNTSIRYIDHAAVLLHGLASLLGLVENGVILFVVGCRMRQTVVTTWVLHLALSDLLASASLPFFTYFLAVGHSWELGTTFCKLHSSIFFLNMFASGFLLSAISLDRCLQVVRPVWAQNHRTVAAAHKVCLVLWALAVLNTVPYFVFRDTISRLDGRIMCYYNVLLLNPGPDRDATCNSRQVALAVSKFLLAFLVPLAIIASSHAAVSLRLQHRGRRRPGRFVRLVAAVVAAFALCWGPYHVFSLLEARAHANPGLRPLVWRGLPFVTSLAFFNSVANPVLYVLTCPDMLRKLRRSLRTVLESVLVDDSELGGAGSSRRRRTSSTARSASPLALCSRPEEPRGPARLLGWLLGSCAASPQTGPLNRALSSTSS
Assay: Inhibition of [3H]PGD2 at GRP44 (CRTH2)
Format: binding
From the text: A model using theoretical size and electronic descriptors ranked the angiotensin AT2 and angiotensin AT1 receptors to be closely related to GRP44 (CRTH2) with respect to ligand-binding features in the binding site.

- binding to CRTH2 (in words) (angiotensin II ligand found via the related receptor): also binding to CRTH2
- IC50 (radioligand [3H]PGD2): 2100 nM
Structure (SMILES): CCOc1nc2cccc(C(=O)O)c2n1Cc1ccc(-c2ccccc2-c2nnn[nH]2)cc1 [candesartan]
